# Values of other authors as cited in patent US20190091190A1, “COMBINATION THERAPY FOR TREATMENT OF MULTIPLE SCLEROSIS” (FWP IP ApS, priority 2012, published 2019).
# Like-named read-outs stand apart in the source and are kept apart here.
# Columns and labels:
# patients with RRMS [1] = settings: for reduction of 12-week confirmed disability progression as measured by EDSS: at 2 years
# [2] = system: patients with EDSS scores of 0-5.5 and relapses; settings: for reduction of frequency of MS relapses vs. placebo: 24 months
# patients with RRMS [3] = settings: for reduction of lymphocyte counts: after 1 month; for patients remaining relapse-free: 12 months
# RRMS patients [4] = settings: 0.6 mg once-daily oral
# RRMS patients [5] = system: RRMS patients
# RRMS patients [6] = system: RRMS patients; remark: listed apart in the source
# [7] = 7 mg or 14 mg added to glatiramer acetate, vs placebo added
# patients with RRMS [8] = settings: 7 mg po once-daily
# [9] = 7 mg and 14 mg, add-on to IFN
# RRMS patients [10] = settings: for time to first relapse during the two years of the study: 45.6% on placebo
compound,measurement,setting,value
"COC(=O)/C=C/C(=O)OC [dimethylfumarate, trans-1,2-Ethylenedicarboxylic acid dimethyl ester]",reduction of annualized relapse rate versus placebo,patients with RRMS [1]; 240 mg po BID,44%
same,reduction of new T1-hypointense lesions,patients with RRMS [1]; 240 mg po BID,57%
same,reduction of number of new or newly enlarging T2-hyperintense lesions,patients with RRMS [1]; 240 mg po BID,71%
same,reduction of proportion of patients who relapsed,patients with RRMS [1]; 240 mg po BID,34%
same,reduction of 12-week confirmed disability progression as measured by EDSS,patients with RRMS [1]; 240 mg po BID,21%
same,reduction of annualized relapse rate versus placebo,patients with RRMS [1]; 240 mg po TID,51%
same,reduction of new T1-hypointense lesions,patients with RRMS [1]; 240 mg po TID,65%
same,reduction of number of new or newly enlarging T2-hyperintense lesions,patients with RRMS [1]; 240 mg po TID,73%
same,reduction of proportion of patients who relapsed,patients with RRMS [1]; 240 mg po TID,45%
same,reduction of 12-week confirmed disability progression as measured by EDSS,patients with RRMS [1]; 240 mg po TID,24%
same,most common adverse effects,patients with RRMS [1]; dimethylfumarate groups (BID and TID),flushing and gastrointestinal (GI) events
same,reduction in annualized relapse rate versus placebo,patients with RRM; 240 po BID,53%
same,reduction in proportion of patients who relapsed at 2 years versus placebo (primary endpoint),patients with RRM; 240 po BID,49%
same,reduction in annualized relapse rate versus placebo,patients with RRM; 240 po TID,48%
same,reduction in proportion of patients who relapsed at 2 years versus placebo (primary endpoint),patients with RRM; 240 po TID,50%
CCCCCCCCc1ccc(CCC(N)(CO)CO)cc1 [fingolimod],AEs that led to discontinuation of the study drug,[2]; 0.5 mg,7.5 % of patients
same,lymphopenia of less than 0.2×10^9 per liter,[2]; 0.5 mg,3.5%
same,reduction of frequency of MS relapses vs. placebo,[2]; 0.5 mg/day,54%
same,reduction of risk of disability progression vs. placebo,"[2]; 0.5 mg/day, confirmed after 3 months",30%
same,reduction of risk of disability progression vs. placebo,"[2]; 0.5 mg/day, confirmed after 6 months",37%
same,AEs that led to discontinuation of the study drug,[2]; 1.25 mg,14.2 % of patients
same,lymphopenia of less than 0.2×10^9 per liter,[2]; 1.25 mg,5.4%
same,macular edema diagnosed,[2]; 1.25 mg,seven
same,reduction of frequency of MS relapses vs. placebo,[2]; 1.25 mg/day,60%
same,reduction of risk of disability progression vs. placebo,"[2]; 1.25 mg/day, confirmed after 3 months",32%
same,reduction of risk of disability progression vs. placebo,"[2]; 1.25 mg/day, confirmed after 6 months",40%
same,AE leading to the discontinuation of study medication,patients with RRMS [3]; 0.5 mg,5.6%
same,overall number of SAE,patients with RRMS [3]; 0.5 mg,7.0%
same,patients who developed macular edema,patients with RRMS [3]; 0.5 mg,0.5%
same,reduction of lymphocyte counts,patients with RRMS [3]; 0.5 mg,73%
same,1-year relapse rate lower than with Avonex,patients with RRMS [3]; 0.5 mg/day oral,52%
same,patients remaining relapse-free,patients with RRMS [3]; 0.5 mg/day oral,83%
same,AE leading to the discontinuation of study medication,patients with RRMS [3]; 1.25 mg,10.0%
same,overall number of SAE,patients with RRMS [3]; 1.25 mg,10.7%
same,patients who developed macular edema,patients with RRMS [3]; 1.25 mg,1%
same,reduction of lymphocyte counts,patients with RRMS [3]; 1.25 mg,77%
same,1-year relapse rate lower than with Avonex,patients with RRMS [3]; 1.25 mg/day oral,38%
same,patients remaining relapse-free,patients with RRMS [3]; 1.25 mg/day oral,80%
same,"time to development of transient, dose-dependent reduction in heart rate",patients with RRMS [3]; after the initial administration,≤ 1 h
CCN(C(=O)c1c(O)c2c(Cl)cccc2n(C)c1=O)c1ccccc1 [laquinimod],reduction in ARR,"RRMS patients [4]; 24 months, p=0.0024",23%
same,reduction in progression of brain atrophy,RRMS patients [4]; p<0.0001,33%
same,reduction in the risk of EDDS progression,RRMS patients [4]; p=0.0122,36%
same,reduced ARR,"RRMS patients [5]; 0.6 mg once-daily oral, pre-specified sensitivity analysis corrected for baseline imbalances",21%
same,reduction in the risk of EDSS progression,"RRMS patients [5]; 0.6 mg, corrected analysis, p=0.044",34%
same,reduction in brain volume loss,"RRMS patients [5]; 0.6 mg, corrected analysis, p=<0.0001",28%
same,primary endpoint of reduction in ARR versus placebo,"RRMS patients [5]; 0.6 mg, uncorrected, p=0.075",did not reach statistical significance
"C/C(O)=C(\C#N)C(=O)Nc1ccc(C(F)(F)F)cc1 [teriflunomide, (Z)-2-cyano-3-hydroxy-but-2-enoic acid-(4′-trifluoro-methylphenyl)-amide]",annualized relapse rate compared to placebo,RRMS patients [6]; 7 mg p.o. once-daily,significant reduction
same,risk of 12 wk sustained accumulation of disability compared to placebo,RRMS patients [6]; 7 mg p.o. once-daily,no significant difference
same,reduction in annualized relapse rate compared to placebo,RRMS patients [6]; 14 mg p.o. once-daily,36.3%
same,reduction in the risk of 12wk sustained accumulation of disability compared to placebo,RRMS patients [6]; 14 mg p.o. once-daily,31.5%
same,reducing T1-Gd lesions,[7],more effective than placebo
same,relapse rate,patients with RRMS [8],0.410
same,reduction in annualized relapse rate,[9],no significant effect
same,reduction of annualized relapse rate (ARR) at 2 years compared to placebo,RRMS patients [10]; 7 mg p.o. once-daily,31.2%
same,reduction of risk of disability progression,RRMS patients [10]; 7 mg p.o. once-daily,24%
same,reduction of the burden of disease (MRI) compared to placebo,RRMS patients [10]; 7 mg p.o. once-daily,39%
same,time to first relapse during the two years of the study,RRMS patients [10]; 7 mg,53.7%
same,reduction of annualized relapse rate (ARR) at 2 years compared to placebo,RRMS patients [10]; 14 mg p.o. once-daily,31.5%
same,reduction of risk of disability progression,RRMS patients [10]; 14 mg p.o. once-daily,30%
same,reduction of the burden of disease (MRI) compared to placebo,RRMS patients [10]; 14 mg p.o. once-daily,67%
same,time to first relapse during the two years of the study,RRMS patients [10]; 14 mg,56.5%
Glatiramer acetate,reduction of new T1-hypointense lesions,patients with RRMS [1]; 20 mg sc once-daily,41%
same,reduction of number of new or newly enlarging T2-hyperintense lesions,patients with RRMS [1]; 20 mg sc once-daily,54%
same,reduction of proportion of patients who relapsed,patients with RRMS [1]; 20 mg sc once-daily,29%
same,reduction of 12-week confirmed disability progression as measured by EDSS,patients with RRMS [1]; 20 mg sc once-daily,7%
